Laboratory results reported in US8680119B2, “Ethers, secondary amines and derivatives thereof as modulators of the 5-HT2A serotonin receptor useful for the treatment of disorders related thereto” (Arena Pharmaceuticals, Inc., priority 2006, dated 2014).
pIC50: −log10 of the molar value.

How the values were obtained:
human 5-HT2A receptor = human 5-HT2A receptor (Homo sapiens (Human), UniProt P28223); assay: [125I]DOI radioligand binding assay; conditions: 0.5 nM [125I]DOI, COS7 membranes with recombinant human 5-HT2A receptor
Procedure: For the IP accumulation assay (Example 3), HEK293 cells were transfected while for the DOI binding assay (Example 4) COS7 cells were transfected. Several protocols well known in the art can be used to transfect cells. The following protocol is representative of the transfection procedures used herein for COS7 or 293 cells.
On day one, COS-7 cells were plated onto 24 well plates, usually 1×10^5 cells/well or 2×10^5 cells/well, respectively. On day two, the cells were transfected by first mixing 0.25 μg cDNA in 50 μL serum-free DMEM/well and then 2 μL lipofectamine in 50 μL serum-free DMEM/well. The solutions (“transfection media”) were gently mixed and incubated for 15-30 minutes at room temperature. The cells were washed with 0.5 mL PBS and then 400 μL of serum free media was mixed with the transfection media and added to the cells. The cells were then incubated for 3-4 hours at 37° C./5% CO2. Then the transfection media was removed and replaced with 1 mL/well of regular growth media.
Compounds of the invention were tested for their ability to bind to a 5-HT2A receptor clone membrane preparation using a radioligand binding assay. Briefly, COS cells were transiently transfected with a pCMV expression vector containing a human 5-HT2A receptor (for the sequence of the receptor see U.S. Pat. No. 6,541,209, SEQ ID NO:24) as described in Example 2.
COS7 cells transfected with recombinant human 5-HT2A receptors were cultured for 48 hr post transfection, collected, washed with ice-cold phosphate buffered saline, pH7.4 (PBS), and then centrifuged at 48,000×g for […] at 4° C. The cell pellet was then resuspended in wash buffer containing 20 mM HEPES pH 7.4 and 0.1 mM EDTA, homogenized on ice using a Brinkman polytron, and recentrifuged at 48,000×g for 20 min. at 4° C. The resultant pellet was then resuspended in 20 mM HEPES, pH 7.4, homogenized on ice, and centrifuged (48,000×g for 20 min at 4° C.). Crude membrane pellets were stored at −80° C. until used for radioligand binding assays.
Radioligand binding assays for human 5-HT2A receptor was conducted using the 5-HT2 agonist [^125I]DOI as radioligand. To define nonspecific binding, 10 μM DOI was used for all assays. For competitive binding studies, 0.5 nM [^125I]DOI was used and compounds were assayed over a range of 0.01 nM to 10 μM. Assays were conducted in a total volume of 200 μl in 96-well Perkin Elmer GF/C filter plates in assay buffer (50 mM Tris-HCl, pH 7.4, 0.5 mM EDTA, 5 mM MgCl2, and 10 μM pargyline). […] Plates were then dried at room temperature and counted in a Wallac microBeta scintillation counter.

diabetic rats = conditions: range stated for all three drugs; cited from earlier work

Compound	pIC50 (human 5-HT2A receptor)	correction of a 19.8% sciatic motor conduction deficit (diabetic rats)
COCCNCCOc1ccc(NC(=O)c2cccc(C(F)(F)F)c2)cc1-c1c(Cl)cnn1C [Compound 15, N-{3-(4-Chloro-2-methyl-2H-pyrazol-3-yl)-4-[2-(2-methoxy-ethylamino)-ethoxy]-phenyl}-3-trifluoromethyl-benzamide]	10.09	
O=CN1CCC(C(=O)NCCN2CCC(=C3c4ccccc4C=Cc4ccccc43)CC2)CC1 [AT-1015]		82.6-99.7%
COc1cccc(CCc2ccccc2OCC(CN(C)C)OC(=O)CCC(=O)O)c1 (stereo not shown) [sarpogrelate]		82.6-99.7%
COCCOc1ccc(NC(=O)c2cccc(C(F)(F)F)c2)cc1-c1ccnn1C [Compound 52, N-[4-(2-Methoxy-ethoxy)-3-(2-methyl-2H-pyrazol-3-yl)-phenyl]-3-trifluoromethyl-benzamide]	8.36	
COCCNC(=O)COc1ccc(NC(=O)c2cccc(C(F)(F)F)c2)cc1-c1c(Cl)cnn1C [Compound 50, N-{3-(4-Chloro-2-methyl-2H-pyrazol-3-yl)-4-[(2-methoxy-ethylcarbamoyl)-methoxy]-phenyl}-3-trifluoromethyl-benzamide]	7.28	
Cc1nc2sccn2c(=O)c1CCN1CCC(=C(c2ccc(F)cc2)c2ccc(F)cc2)CC1 [ritanserin]		82.6-99.7%
COc1cccc(C(=O)Nc2ccc(OCCO)c(-c3c(Cl)cnn3C)c2)c1 [Compound 68, N-[3-(4-Chloro-2-methyl-2H-pyrazol-3-yl)-4-(2-hydroxy-ethoxy)-phenyl]-3-methoxy-benzamide]	9.29	
